Experiments:
barnyardgrass [1] = experiment: Test A pre-/postemergence herbicide test; format: in vivo, Echinochloa crus-galli; details: 1000 g ai/ha
Procedure, shortened: (§1)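 Both application timings used compounds in a non-phytotoxic solvent plus surfactant. Pre-emergence: soil sprayed directly after seeding into loam/sand. Post-emergence: foliage of 2–10 cm seedlings (1–2 leaves) sprayed. Injury rated ~10 days later, 0–100.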

crabgrass, large = experiment: Test A pre-/postemergence herbicide test; format: in vivo, Digitaria sanguinalis; details: 1000 g ai/ha
Procedure, shortened: as §1

giant foxtail = experiment: Test A pre-/postemergence herbicide test; format: in vivo, Setaria faberii; details: 1000 g ai/ha
Procedure, shortened: as §1

morningglory = experiment: Test A pre-/postemergence herbicide test; format: in vivo, Ipomoea spp.; details: 1000 g ai/ha
Procedure, shortened: as §1

pigweed = experiment: Test A pre-/postemergence herbicide test; format: in vivo, Amaranthus retroflexus; details: 1000 g ai/ha
Procedure, shortened: as §1

velvetleaf = experiment: Test A pre-/postemergence herbicide test; format: in vivo, Abutilon theophrasti; details: 1000 g ai/ha
Procedure, shortened: as §1

wheat = experiment: Test A pre-/postemergence herbicide test; format: in vivo, Triticum aestivum; details: 1000 g ai/ha
Procedure, shortened: as §1

corn = experiment: Test A pre-/postemergence herbicide test; format: in vivo, Zea mays; details: 1000 g ai/ha
Procedure, shortened: as §1

rice = experiment: Test C flooded paddy test; format: in vivo, Oryza sativa; details: Flood
Procedure, shortened: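 2-leaf stage; flood 3 cm over soil; compound into paddy water; depth held; greenhouse 13–15 d; visual % control vs untreated (0 = none, 100 = complete); "-" = not tested.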

sedge, umbrella = experiment: Test C flooded paddy test; format: in vivo, Cyperus difformis; details: Flood
Text: (§2) Plant species in the flooded paddy test consisted of rice (Oryza sativa), sedge, umbrella (small-flower umbrella sedge, Cyperus difformis), ducksalad (Heteranthera limosa), and barnyardgrass (Echinochloa crus-galli) grown to the 2-leaf stage for testing. At time of treatment, test pots were flooded to 3 cm above the soil surface, treated by application of test compounds directly to the paddy water, and then maintained at that water depth for the duration of the test. Treated plants and controls were maintained in a greenhouse for 13 to 15 days, after which time all species were compared to controls and visually evaluated. Plant response ratings, summarized in Table C, are based on a scale of 0 to 100 where 0 is no effect and 100 is complete control. A dash (-) response means no test result.

ducksalad = experiment: Test C flooded paddy test; format: in vivo, Heteranthera limosa; details: Flood
Text: as §2

barnyardgrass [2] = experiment: Test C flooded paddy test; format: in vivo, Echinochloa crus-galli; details: Flood
Text: as §2

[3] = Postemergence, 0 to 100 scale (0 no effect, 100 complete control)
[4] = Preemergence, visual rating on 0 to 100 scale (0 no effect, 100 complete control), approx. 10 days
[5] = 62 g ai/ha, scale of 0 to 100 where 0 is no effect and 100 is complete control, 13 to 15 days

Row | Compound | Plant response rating, Barnyardgrass (barnyardgrass [1]; [3]) | Plant response rating, Barnyardgrass (barnyardgrass [1]; [4]) | Plant response rating, Crabgrass, Large (crabgrass, large; [3]) | Plant response rating, Crabgrass, Large (crabgrass, large; [4]) | Plant response rating, Foxtail, Giant (giant foxtail; [3]) | Plant response rating, Foxtail, Giant (giant foxtail; [4]) | Plant response rating, Morningglory (morningglory; [3]) | Plant response rating, Morningglory (morningglory; [4]) | Plant response rating, Pigweed (pigweed; [3]) | Plant response rating, Velvetleaf (velvetleaf; [3]) | Plant response rating, Velvetleaf (velvetleaf; [4]) | Plant response rating, Wheat (wheat; [3]) | Plant response rating, Wheat (wheat; [4]) | Plant response rating, Corn (corn; [3]) | Plant response rating, Corn (corn; [4]) | Plant response rating, Rice (rice; [5]) | Plant response rating, Rice (rice; 250 g ai/ha, scale 0 to 100) | Plant response rating, Sedge, Umbrella (sedge, umbrella; [5]) | Plant response rating, Sedge, Umbrella (sedge, umbrella; 250 g ai/ha, scale 0 to 100) | Plant response rating, Ducksalad (ducksalad; [5]) | further results
1 | O=C1NCC(c2ccc(F)c(F)c2)C1C(=O)Nc1ccc(F)cc1F (racemic) [Compound 23] | 90 | 90 | 80 | 90 | 80 | 90 | 0 | 0 | 0 | 40 | 40 | 0 | 0 | 0 | 0 | 0 | 0 | 0 | 30 | 30 | Plant response rating, Ducksalad (ducksalad; 250 g ai/ha, scale 0 to 100): 100; Plant response rating, Barnyardgrass (barnyardgrass [2]; [5]): 0; Plant response rating, Barnyardgrass (barnyardgrass [2]; 250 g ai/ha, scale 0 to 100): 0
2 | O=C1NCC(c2ccc(Cl)c(Cl)c2)C1C(=O)Nc1ccccc1C(F)(F)F (racemic) [Compound 26] | 70 | 70 | 60 | 90 | 70 | 90 | 0 | 0 | 0 | 0 | 0 | 0 | 0 | 0 | 0 | 0 | 0 | 0 | 0 | 0 | Plant response rating, Pigweed (pigweed; [4]): 0; Plant response rating, Ducksalad (ducksalad; 250 g ai/ha, scale 0 to 100): 80; Plant response rating, Barnyardgrass (barnyardgrass [2]; [5]): 0; Plant response rating, Barnyardgrass (barnyardgrass [2]; 250 g ai/ha, scale 0 to 100): 0
3 | O=C1NCC(c2ccc(Cl)c(Cl)c2)C1C(=O)Nc1cccc(F)c1 (racemic) [Compound 27] | 70 | 70 | 70 | 90 | 60 | 90 | 0 | 0 | 0 | 0 | 0 | 0 | 0 | 0 | 0 | 0 | 0 | 0 | 0 | 0 | Plant response rating, Pigweed (pigweed; [4]): 0; Plant response rating, Ducksalad (ducksalad; 250 g ai/ha, scale 0 to 100): 30; Plant response rating, Barnyardgrass (barnyardgrass [2]; [5]): 0; Plant response rating, Barnyardgrass (barnyardgrass [2]; 250 g ai/ha, scale 0 to 100): 0

— US10294202B2, “Pyrrolidinones as herbicides” (FMC Corporation, priority 2013, dated 2019)
